# From the NIST ThermoML archive (doi:10.1021/acs.jced.5b00545)
# ± gives the expanded uncertainty stated by the source.
# Settings: Liquid; for mass density / kinematic viscosity: 101.33 kPa; for mass density: Pycnometric method; for kinematic viscosity: Capillary tube (Ostwald / Ubbelohde) method; for vapor or sublimation pressure: Closed cell (Static) method
compound,measurement,setting,value
CCCCCC[C@@H](O)CC=CCCCCCCCC(=O)OC [[R]-methyl 12-hydroxy-9-octadecenoate],mass density,293.16 K,928.5 ± 7 kg/m3
same,kinematic viscosity,298.23 K,2.95e-05 ± 9.6e-07 m2/s
same,kinematic viscosity,303.13 K,2.35e-05 ± 7.6e-07 m2/s
same,mass density,303.17 K,921.2 ± 7 kg/m3
same,kinematic viscosity,308.25 K,1.81e-05 ± 5.9e-07 m2/s
same,kinematic viscosity,313.15 K,1.49e-05 ± 4.8e-07 m2/s
same,mass density,313.33 K,916.7 ± 7 kg/m3
same,kinematic viscosity,318.38 K,1.2e-05 ± 3.9e-07 m2/s
same,mass density,323.05 K,910.3 ± 7 kg/m3
same,kinematic viscosity,323.08 K,1.01e-05 ± 3.3e-07 m2/s
same,kinematic viscosity,328.12 K,8.52e-06 ± 2.8e-07 m2/s
same,kinematic viscosity,333.15 K,7.25e-06 ± 2.4e-07 m2/s
same,mass density,333.25 K,904 ± 7 kg/m3
same,kinematic viscosity,338.05 K,6.26e-06 ± 2e-07 m2/s
same,kinematic viscosity,343.1 K,5.43e-06 ± 1.8e-07 m2/s
same,mass density,343.32 K,895.8 ± 7 kg/m3
same,kinematic viscosity,348.06 K,4.76e-06 ± 1.5e-07 m2/s
same,mass density,353.06 K,883.3 ± 7 kg/m3
same,kinematic viscosity,353.11 K,4.2e-06 ± 1.4e-07 m2/s
same,kinematic viscosity,358.15 K,3.73e-06 ± 1.2e-07 m2/s
same,mass density,363.38 K,875 ± 7 kg/m3
same,mass density,373.26 K,865.8 ± 7 kg/m3
same,mass density,383.23 K,857.5 ± 7 kg/m3
same,vapor or sublimation pressure,451.58 K,0.232 ± 0.054 kPa
same,vapor or sublimation pressure,454.7 K,0.276 ± 0.064 kPa
same,vapor or sublimation pressure,457.23 K,0.319 ± 0.074 kPa
same,vapor or sublimation pressure,459.5 K,0.361 ± 0.084 kPa
same,vapor or sublimation pressure,461.85 K,0.41 ± 0.095 kPa
same,vapor or sublimation pressure,463.55 K,0.449 ± 0.1 kPa
same,vapor or sublimation pressure,465.2 K,0.49 ± 0.11 kPa
same,vapor or sublimation pressure,466.83 K,0.533 ± 0.12 kPa
same,vapor or sublimation pressure,469.55 K,0.61 ± 0.14 kPa
same,vapor or sublimation pressure,470.4 K,0.637 ± 0.15 kPa
same,vapor or sublimation pressure,471.25 K,0.665 ± 0.15 kPa
same,vapor or sublimation pressure,472.3 K,0.7 ± 0.16 kPa
same,vapor or sublimation pressure,473.15 K,0.73 ± 0.17 kPa
same,vapor or sublimation pressure,474.9 K,0.794 ± 0.18 kPa
same,vapor or sublimation pressure,476.8 K,0.868 ± 0.2 kPa
CCCCCCCCCCCCCCCC(=O)OC [methyl hexadecanoate],vapor or sublimation pressure,407.12 K,0.13 ± 0.029 kPa
same,vapor or sublimation pressure,414.26 K,0.21 ± 0.047 kPa
same,vapor or sublimation pressure,418.18 K,0.24 ± 0.054 kPa
same,vapor or sublimation pressure,422.34 K,0.27 ± 0.061 kPa
same,vapor or sublimation pressure,424.68 K,0.305 ± 0.068 kPa
same,vapor or sublimation pressure,427.54 K,0.365 ± 0.082 kPa
same,vapor or sublimation pressure,429.32 K,0.415 ± 0.093 kPa
same,vapor or sublimation pressure,432.32 K,0.42 ± 0.094 kPa
same,vapor or sublimation pressure,434.18 K,0.515 ± 0.12 kPa
same,vapor or sublimation pressure,437.3 K,0.545 ± 0.12 kPa
same,vapor or sublimation pressure,438.44 K,0.56 ± 0.13 kPa
same,vapor or sublimation pressure,439.6 K,0.65 ± 0.15 kPa
same,vapor or sublimation pressure,441 K,0.66 ± 0.15 kPa
same,vapor or sublimation pressure,445.36 K,0.84 ± 0.19 kPa
same,vapor or sublimation pressure,447.06 K,0.85 ± 0.19 kPa
